Measurements from patent US20190169134A1, “NOVEL CLASS OF QUINOLONE HETEROCYCLIC AROMATIC MOLECULES FOR CANCER TREATMENT” (RenoTarget Therapeutics, Inc., priority 2016, published 2019).

Tests used:
[1] = tested on: HCC827 TR cells; experiment: Combination analysis of cell growth inhibition (SRB, CalcuSyn); type: cell-based, human
Method: (§1) As described in Example 2.1. Two cell lines, HCC827-P and HCC827-TR (Tarceva-resistant HCC727 cells-an EGFRi resistant cell line with MET amplification) (Wang, Pursell et al. 2013) were used in the combination study. Exponentially growing HC[…] and HCC827-TR cells were seeded into 96-wells dishes at density of 3,000 cells per well. Twenty-four hours later, the cells were exposed concurrently to serial dilution of Reno647 or Carboplatin or Camptothecin alone or in combination at a ratio of 1:50 with Carboplatin or at ratio 1:1 with Camptothecin for 3 days. Reno647 were concurrently and sequentially with paclitaxel (Taxol) at ratio of 200:1 for 6 days. For sequential exposure, the cells were treated with Reno647 for 3 days, after removal of the drug containing medium, the cells were treated with Taxol for additional 3 days, or the cells were treated by Taxol first followed by the treatment with Reno 647. After incubation for 6 days, the cell growth was measured by SRB as described previously in Example 2.1 section, and the percentages of inhibition (1-T/C) % were calculated, and data were analyzed by a PC program, CalcuSyn, Biosoft (edited by T.-C. Chou, Memorial Sloan-Kettering Cancer Center, New York, and M. P. Hayball, at Cambridge, UK, 1996). The computer-calculated combination index (CI) was used to judge the outcomes of a combination: […] It has long been accepted that chemotherapy provided some benefit for patients with non-small-cell lung cancer (NSCLC) in terms of quality of life and symptomatology as well as modest improvements in survival. […] Cell growth was determined by SRB as described above. […] Cell growth was determined by SRB as described above. […] (FIG. 5 C&D, CIs were well below 1 at effective concentration), particularly at higher concentration where Reno647 achieves its effective inhibition on […]. […] However, induction of EGFR activation mediated by Taxol may compromise activity of EGFR inhibitors. To examine our hypothesis, Taxol was combined with Reno647 in three different sequential exposures: • Combination 1: exposure of HC[…] or TR cells to Reno647+Taxol simultaneously for 6 days. • Combination 2: exposure of the cells to Reno647 first for 3 days followed by treatment with Taxol for an additional 3 days, or • Combination 3: exposure of the cells to Taxol first for 3 days followed by treatment with Reno647 for an additional 3 days. Exposure of the cells to either Reno647 or Taxol served as controls. After exposure, cell growth was determined by SRB and analyzed as described in above section.

[2] = tested on: HCC827 P cells; experiment: as above; type: cell-based, human
Method: as §1

[3] = molecular target: T1, EGFR(L861Q) (Homo sapiens, UniProt P00533, L861Q); experiment: KinaseSeeker competition binding assay
T1 construct: made in house; host or cells: cell-free system (rabbit reticulocyte lysate)
T1 sequence (P00533 25-1210 L861Q): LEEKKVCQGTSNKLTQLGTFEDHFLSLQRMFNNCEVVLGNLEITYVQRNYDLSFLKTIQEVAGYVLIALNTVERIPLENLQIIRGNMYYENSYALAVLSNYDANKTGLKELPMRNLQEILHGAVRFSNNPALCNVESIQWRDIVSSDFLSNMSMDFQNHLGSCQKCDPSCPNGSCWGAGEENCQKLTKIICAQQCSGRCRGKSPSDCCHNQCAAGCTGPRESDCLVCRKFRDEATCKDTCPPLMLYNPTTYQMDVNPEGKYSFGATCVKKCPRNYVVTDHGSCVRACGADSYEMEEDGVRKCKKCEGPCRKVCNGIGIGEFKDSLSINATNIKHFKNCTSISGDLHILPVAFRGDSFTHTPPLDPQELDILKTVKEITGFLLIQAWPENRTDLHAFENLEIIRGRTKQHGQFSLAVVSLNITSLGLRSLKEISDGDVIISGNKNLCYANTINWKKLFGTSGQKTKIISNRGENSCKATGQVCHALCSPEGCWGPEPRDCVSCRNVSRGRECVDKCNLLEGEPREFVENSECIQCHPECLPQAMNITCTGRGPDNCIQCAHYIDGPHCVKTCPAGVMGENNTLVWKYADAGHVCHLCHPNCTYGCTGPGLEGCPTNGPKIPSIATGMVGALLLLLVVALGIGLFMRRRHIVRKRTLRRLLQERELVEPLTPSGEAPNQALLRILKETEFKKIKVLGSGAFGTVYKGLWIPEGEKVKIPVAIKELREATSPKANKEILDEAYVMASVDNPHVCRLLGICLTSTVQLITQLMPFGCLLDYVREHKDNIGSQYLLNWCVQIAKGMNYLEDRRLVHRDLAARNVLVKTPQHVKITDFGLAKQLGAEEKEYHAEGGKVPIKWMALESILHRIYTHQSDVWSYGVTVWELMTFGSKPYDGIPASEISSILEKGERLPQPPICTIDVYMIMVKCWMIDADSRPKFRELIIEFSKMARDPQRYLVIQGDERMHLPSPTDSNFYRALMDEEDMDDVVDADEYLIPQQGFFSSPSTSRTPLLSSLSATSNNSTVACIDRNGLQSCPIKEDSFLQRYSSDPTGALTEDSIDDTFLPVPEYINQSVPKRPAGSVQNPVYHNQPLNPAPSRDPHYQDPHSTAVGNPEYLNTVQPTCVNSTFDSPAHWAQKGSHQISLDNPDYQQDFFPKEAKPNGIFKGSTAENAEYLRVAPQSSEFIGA
Method: (§2) Compound Reno647 was profiled against the following panel of kinases at 2 μM using the KinaseSeeker™ assay: ABL1, AKT1, AKT2, AKT3, ALK, AURKA, AXL, BRAF, BTK, CDK2, CDK5, CDK7, CDK8, CSF1R, DDR1, EGFR del L747-P753 InsS, EGFR (L861Q), EGFR (G719S), EGFR, EGFR (L858R), EPHA2, EPHB2, FGFR3, FLT1/VEGFR1, FLT2/FGFR1, FLT3, FLT4/VEGFR3, GSK-3a, HER2, IGF1R, INSR, KIT, LIMK1, MET, MLK2/MAP3K10, RPS6KA5/MSK1, MUSK, p38a/MAPK12, PDGFRA, PDGFRB, PDK1, RET, RIPK2, RPS6KA1/RSK1, SRC, TEC, TESK1, TRKB, VEGFR2, and YES 1.
(§3) KinaseSeeker is a homogeneous competition binding assay where the displacement of an active site dependent probe by an inhibitor is measured by a change in luminescence signal (see FIG. 7). Luminescence readout translates into a highly sensitive and robust assay with low background and minimal interference from test compounds.
(§4) (Jester, Cox et al. 2010; Jester, Gaj et al. 2012): 10 mM stock of compound Reno647 was diluted in DMSO to a concentration of 50 μM. Prior to initiating a profiling campaign, the compound was evaluated for false positive against split-luciferase. The compound was then screened in duplicate against each of the kinases. For kinase assays, each Cfluc-Kinase was translated along with Fos-Nfluc using a cell-free system (rabbit reticulocyte lysate) at 30° C. for 90 min. A 24 μL aliquot of this lysate containing either 1 μL of DMSO (for no-inhibitor control) or compound solution in DMSO (2 LM final concentration) was incubated for 30 minutes at room temperature followed by 1 hour in the presence of a kinase specific probe. A 80 μL of luciferin assay reagent was added to each solution and luminescence was immediately measured on a luminometer.
(§5) The % Inhibition and % Activity Remaining were calculated using the following equations:
(§6) % inhibition=(ALUcontrol−ALUsample)×100
(§7) % activity=100−% inhibition.
(§8) The same assay design was used as described in example section 3.1.
(§9) 10 mM stock solutions of compound Reno647 was serially diluted in DMSO to make assay stocks. Prior to initiating IC50 determination, the test compound was evaluated for false positive against split-luciferase.
(§10) Reno647 was screened against 6 kinases (EGFR, EGFR del L747 P753 InsS, EGFR G719S, EGFR L858R, EGFR L861Q, RIPK2) at a minimum of 8 different concentrations in duplicate. For kinase assays, a 24 μL aliquot of lysate containing Cfluc-kinase and Fos-Nfluc was incubated for 30 minutes at room temperature with either 1 μL of DMSO (for no-inhibitor control) or compound solution in DMSO, followed by 1 hour incubation in the presence of a kinase specific probe. A 80 μL of luciferin assay reagent was added to each solution and luminescence was immediately measured on a luminometer.
(§11) % inhibition=(ALUcontrol−ALUsample)/ALcontrol×100
(§12) The % Activity was plotted against compound concentration and the IC50 was determined for each compound using an 8-point curve.

[4] = molecular target: T2, EGFR (L858R) (Homo sapiens, UniProt P00533, L858R); experiment: KinaseSeeker competition binding assay
T2 construct: made in house; host or cells: cell-free system (rabbit reticulocyte lysate)
T2 sequence (P00533 25-1210 L858R): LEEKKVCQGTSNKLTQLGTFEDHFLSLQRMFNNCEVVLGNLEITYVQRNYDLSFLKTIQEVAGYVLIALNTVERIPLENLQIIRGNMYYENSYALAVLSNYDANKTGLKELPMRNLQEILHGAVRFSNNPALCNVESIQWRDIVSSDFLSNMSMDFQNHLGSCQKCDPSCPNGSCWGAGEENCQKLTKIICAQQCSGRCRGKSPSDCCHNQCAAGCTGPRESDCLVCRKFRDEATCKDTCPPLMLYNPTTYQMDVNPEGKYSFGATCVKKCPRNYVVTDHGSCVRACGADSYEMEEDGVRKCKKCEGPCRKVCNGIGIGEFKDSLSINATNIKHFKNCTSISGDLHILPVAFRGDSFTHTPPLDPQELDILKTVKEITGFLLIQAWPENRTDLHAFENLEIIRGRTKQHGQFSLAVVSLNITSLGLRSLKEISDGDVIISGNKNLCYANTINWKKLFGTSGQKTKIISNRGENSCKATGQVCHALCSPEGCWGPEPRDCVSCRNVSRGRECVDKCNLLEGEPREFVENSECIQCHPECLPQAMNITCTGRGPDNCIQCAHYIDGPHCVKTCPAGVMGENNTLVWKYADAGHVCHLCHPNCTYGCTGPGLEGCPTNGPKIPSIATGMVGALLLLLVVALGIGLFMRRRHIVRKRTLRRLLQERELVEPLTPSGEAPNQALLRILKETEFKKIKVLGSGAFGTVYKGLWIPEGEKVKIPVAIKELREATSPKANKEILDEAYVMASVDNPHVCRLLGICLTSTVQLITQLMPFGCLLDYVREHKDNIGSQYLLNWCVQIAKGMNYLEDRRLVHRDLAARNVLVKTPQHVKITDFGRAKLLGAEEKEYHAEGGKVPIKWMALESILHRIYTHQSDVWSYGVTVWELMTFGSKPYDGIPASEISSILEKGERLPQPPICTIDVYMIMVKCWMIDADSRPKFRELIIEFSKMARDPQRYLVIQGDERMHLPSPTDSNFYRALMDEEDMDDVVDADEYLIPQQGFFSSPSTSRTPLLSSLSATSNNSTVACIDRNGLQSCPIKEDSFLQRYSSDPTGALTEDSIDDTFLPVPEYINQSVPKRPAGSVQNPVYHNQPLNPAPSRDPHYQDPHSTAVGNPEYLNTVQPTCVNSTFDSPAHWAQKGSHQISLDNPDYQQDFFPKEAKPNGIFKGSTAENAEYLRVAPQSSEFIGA
Method: as §2, §3, §4, §5, §6, §7, §8, §9, §10, §11, §12

[5] = molecular target: T3, EGFR (G719S) (Homo sapiens, UniProt P00533, G719S); experiment: KinaseSeeker competition binding assay
T3 construct: made in house; host or cells: cell-free system (rabbit reticulocyte lysate)
T3 sequence (P00533 25-1210 G719S): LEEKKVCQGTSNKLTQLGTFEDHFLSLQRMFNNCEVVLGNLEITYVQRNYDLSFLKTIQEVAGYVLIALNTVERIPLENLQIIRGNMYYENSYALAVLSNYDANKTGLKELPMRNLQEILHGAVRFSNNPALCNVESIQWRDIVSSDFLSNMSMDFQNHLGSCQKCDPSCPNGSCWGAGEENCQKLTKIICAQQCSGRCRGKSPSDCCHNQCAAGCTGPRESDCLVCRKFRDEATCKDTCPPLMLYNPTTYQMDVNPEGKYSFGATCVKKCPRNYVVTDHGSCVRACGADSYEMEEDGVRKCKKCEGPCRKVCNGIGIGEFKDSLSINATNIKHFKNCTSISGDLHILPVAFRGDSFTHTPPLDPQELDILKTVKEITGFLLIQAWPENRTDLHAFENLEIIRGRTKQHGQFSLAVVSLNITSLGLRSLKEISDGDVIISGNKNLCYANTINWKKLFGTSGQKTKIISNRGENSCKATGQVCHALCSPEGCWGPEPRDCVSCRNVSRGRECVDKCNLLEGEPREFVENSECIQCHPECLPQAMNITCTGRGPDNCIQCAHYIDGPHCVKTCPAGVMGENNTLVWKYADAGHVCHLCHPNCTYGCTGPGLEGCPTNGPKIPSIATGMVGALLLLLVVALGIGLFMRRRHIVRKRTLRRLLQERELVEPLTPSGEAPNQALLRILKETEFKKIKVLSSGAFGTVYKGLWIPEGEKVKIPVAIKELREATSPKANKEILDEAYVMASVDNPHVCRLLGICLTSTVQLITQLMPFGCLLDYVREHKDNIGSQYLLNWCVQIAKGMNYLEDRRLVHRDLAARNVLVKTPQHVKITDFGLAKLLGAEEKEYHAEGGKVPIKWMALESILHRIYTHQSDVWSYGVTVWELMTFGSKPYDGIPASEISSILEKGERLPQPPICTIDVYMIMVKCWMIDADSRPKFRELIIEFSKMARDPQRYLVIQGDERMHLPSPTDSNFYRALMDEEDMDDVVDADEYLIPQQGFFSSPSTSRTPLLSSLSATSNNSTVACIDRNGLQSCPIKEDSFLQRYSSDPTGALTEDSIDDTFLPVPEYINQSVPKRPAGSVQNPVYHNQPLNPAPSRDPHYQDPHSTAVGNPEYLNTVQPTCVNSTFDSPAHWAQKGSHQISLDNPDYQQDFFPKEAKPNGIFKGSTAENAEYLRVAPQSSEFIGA
Method: as §2, §3, §4, §5, §6, §7, §8, §9, §10, §11, §12

[6] = HCC827TR, ratio 200:1, 3 days + 3 days
[7] = HCC827P, ratio 200:1, 3 days + 3 days

**Q.** With `C#Cc1cccc(Nc2ncnc3cc(OCCOC)c(NC(=O)c4ccc(F)c([N+](=O)[O-])c4)cc23)c1` [Reno647, 4-Fluoro-N-[4-(3-ethynyl-phenylamino)-7-(2-methoxy-ethoxy)-quinazolin-6-yl]-3-nitro-benzamide] as the compound, how does the “combination index (CI), Reno647 with Camptothecin” value ([1]; HCC827 TR, ratio 1:1, concurrent, 3 days, at effective concentration) read?
**A.** Its value is “below 1”.

**Q.** And the “combination index (CI), Reno647 with Carboplatin” value ([1]; HCC827 TR, ratio 1:50, concurrent, 6 days, at effective concentrations)?
**A.** Its value is “below 1”.

**Q.** And the “combination index (CI), Reno647 first followed by Taxol” value [1, 6]?
**A.** Its value is over 1.

**Q.** What about the “combination index (CI), Taxol first followed by Reno647” value [1, 6] of the same compound?
**A.** Its value is under 1.

**Q.** What about the “combination index (CI), Reno647 and Taxol concurrently” value ([1]; HCC827TR, ratio 200:1, 6 days) of the same compound?
**A.** The value was under 1.

**Q.** And the “combination index (CI), Reno647 with Camptothecin” value ([2]; HCC827 P, ratio 1:1, concurrent, 3 days, at effective concentration)?
**A.** The value was “below 1”.

**Q.** What about the “combination index (CI), Reno647 with Carboplatin” value ([2]; HCC827 P, ratio 1:50, concurrent, 6 days, at effective concentrations) of the same compound?
**A.** Its value is “below 1”.

**Q.** What about the “combination index (CI), Reno647 first followed by Taxol” value [2, 7] of the same compound?
**A.** Its value is over 1.

**Q.** And the “combination index (CI), Taxol first followed by Reno647” value [2, 7]?
**A.** The value was under 1.

**Q.** What about the “combination index (CI), Reno647 and Taxol concurrently” value ([2]; HCC827P, ratio 200:1, 6 days) of the same compound?
**A.** Its value is under 1.

**Q.** What about the remaining binding at 2 µM ([3]; 2 μM, EGFR(L861Q)) of the same compound?
**A.** Its remaining binding at 2 µM is 20.7%.

**Q.** And the IC50 ([3]; 8-point curve, duplicate)?
**A.** The IC50 was 574 nM.

**Q.** What about the remaining binding at 2 µM ([4]; 2 μM, EGFR (L858R)) of the same compound?
**A.** Its remaining binding at 2 µM is 7.2%.

**Q.** And the IC50 ([4]; 8-point curve, duplicate)?
**A.** The IC50 was 159 nM.

**Q.** And the remaining binding at 2 µM ([5]; 2 μM, EGFR (G719S))?
**A.** The remaining binding at 2 µM was 30.2%.

**Q.** What about the IC50 ([5]; 8-point curve, duplicate) of the same compound?
**A.** Its IC50 is 971 nM.
